Measurements from patent US12018229B2, “Organic compounds” (Givaudan SA, priority 2018, dated 2024).

Experiment: Determination of GC-odor threshold values (gas chromatograph with sniff port, panel of trained evaluators)
Settings: absolute amount of compound delivered at the sniff port, identical conditions
Procedure: According to standard procedures known to the person skilled in the art, threshold values for volatile perfumery compounds are determined on a gas chromatograph equipped with a sniff port by a panel of trained evaluators. The lowest concentration smelled by each panelist is recorded as the individual threshold value expressed in ng (absolute amount of compound delivered at the sniff port).
Under identical conditions the odor threshold value for the individual compounds was measured.

Question: For `CC1=CCOC(CCCCc2ccccc2)C1` (centres unmarked) [Example 4, 4-Methyl-2-(4-phenylbutyl)-3,6-dihydro-2H-pyran, reference compound], which odor threshold value is on record?
Answer: The odor threshold value was 63 ng.

Question: With `CC1=CC(C)OC(CCCc2ccccc2)C1` (centres unmarked) [Example 2, 4,6-Dimethyl-2-(3-phenylpropyl)-3,6-dihydro-2H-pyran] as the compound, how does the odor threshold value read?
Answer: Its odor threshold value is 0.03 ng.

Question: Which odor threshold value does the source give for `CC1=CCOC(Cc2ccccc2)C1` (centres unmarked) [Example 3, 2-Benzyl-4-methyl-3,6-dihydro-2H-pyran] here?
Answer: Its odor threshold value is 0.03 ng.

Question: For `CC1=CCOC(CCCc2ccccc2)C1` (centres unmarked) [Example 1, 4-Methyl-2-(3-phenylpropyl)-3,6-dihydro-2H-pyran], which odor threshold value is on record?
Answer: Its odor threshold value is 0.02 ng.

Question: For `CC1=CCOC(CCc2ccccc2)C1` (centres unmarked) [Example 5, 4-Methyl-2-phenethyl-3,6-dihydro-2H-pyran, reference compound], which odor threshold value is on record?
Answer: Its odor threshold value is 45 ng.
